# In article PMC11062922 (Nature Chemical Biology, 2023):
# Read-outs that look alike come from different tables or passages of the source.
# Tests used:
# PRKACG = molecular target: T1, PRKACG (Homo sapiens, UniProt P22612); test: Kinobeads full dose-response competition binding: PRKACG; conditions: Gene Name PRKACG
# T1 construct: endogenous in cells
# PRKCB = molecular target: T2, PRKCB (Homo sapiens, UniProt P05771); test: Kinobeads full dose-response competition binding: PRKCB; conditions: Gene Name PRKCB
# T2 construct: endogenous in cells
# PRKACA = molecular target: T3, PRKACA (Homo sapiens, UniProt P17612); test: Kinobeads full dose-response competition binding: PRKACA; conditions: Gene Name PRKACA
# T3 construct: a mixture of lysates from five cancer cell lines; endogenous in cells
# PRKCQ = molecular target: T4, PRKCQ (Homo sapiens, UniProt Q04759); test: Kinobeads full dose-response competition binding: PRKCQ; conditions: Gene Name PRKCQ
# T4 construct: to maximize the representation of endogenous proteins; endogenous in cells
# PRKACB = molecular target: T5, PRKACB (Homo sapiens, UniProt P22694); test: Kinobeads full dose-response competition binding: PRKACB; conditions: Gene Name PRKACB
# T5 construct: endogenous in cells
# PHKG2 = molecular target: T6, PHKG2 (Homo sapiens, UniProt P15735); test: Kinobeads competition binding, Lestaurtinib control replicates: PHKG2; conditions: read-out: Lestaurtinib Drugmatrix value; Gene Name PHKG2; one column per experiment number and replicate (R1-R3)
# T6 construct: a mixture of lysates from five cancer cell lines; endogenous in cells
# T6 sequence (P15735 1-406): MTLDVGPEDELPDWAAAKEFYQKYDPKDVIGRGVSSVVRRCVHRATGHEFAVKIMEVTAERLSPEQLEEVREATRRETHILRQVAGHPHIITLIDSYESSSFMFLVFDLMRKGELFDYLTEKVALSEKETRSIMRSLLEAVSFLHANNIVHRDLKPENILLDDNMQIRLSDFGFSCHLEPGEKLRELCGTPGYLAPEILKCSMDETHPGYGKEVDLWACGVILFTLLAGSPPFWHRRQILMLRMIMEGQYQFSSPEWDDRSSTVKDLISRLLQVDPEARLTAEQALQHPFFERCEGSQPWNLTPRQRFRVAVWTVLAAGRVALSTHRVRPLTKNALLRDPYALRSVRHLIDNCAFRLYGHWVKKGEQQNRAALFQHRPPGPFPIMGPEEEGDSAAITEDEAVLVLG
# GSK3A = molecular target: T7, GSK3A (Homo sapiens, UniProt P49840); test: Kinobeads two-dose competition binding: GSK3A; conditions: read-out: Lestaurtinib Drugmatrix value, Gene Name GSK3A
# T7 construct: endogenous in cells
# PRKAR2A = molecular target: T8, PRKAR2A (Homo sapiens, UniProt P13861); test: Kinobeads competition binding, Lestaurtinib control replicates: PRKAR2A; conditions: read-out: Lestaurtinib Drugmatrix value; Gene Name PRKAR2A; one column per experiment number and replicate (R1-R3)
# T8 construct: to maximize the representation of endogenous proteins; endogenous in cells
# ACAD11 = molecular target: T9, ACAD11 (Homo sapiens, UniProt Q709F0); test: Kinobeads two-dose competition binding: ACAD11; conditions: read-out: Lestaurtinib Drugmatrix value, Gene Name ACAD11
# T9 construct: endogenous in cells
# T9 sequence (Q709F0 1-780): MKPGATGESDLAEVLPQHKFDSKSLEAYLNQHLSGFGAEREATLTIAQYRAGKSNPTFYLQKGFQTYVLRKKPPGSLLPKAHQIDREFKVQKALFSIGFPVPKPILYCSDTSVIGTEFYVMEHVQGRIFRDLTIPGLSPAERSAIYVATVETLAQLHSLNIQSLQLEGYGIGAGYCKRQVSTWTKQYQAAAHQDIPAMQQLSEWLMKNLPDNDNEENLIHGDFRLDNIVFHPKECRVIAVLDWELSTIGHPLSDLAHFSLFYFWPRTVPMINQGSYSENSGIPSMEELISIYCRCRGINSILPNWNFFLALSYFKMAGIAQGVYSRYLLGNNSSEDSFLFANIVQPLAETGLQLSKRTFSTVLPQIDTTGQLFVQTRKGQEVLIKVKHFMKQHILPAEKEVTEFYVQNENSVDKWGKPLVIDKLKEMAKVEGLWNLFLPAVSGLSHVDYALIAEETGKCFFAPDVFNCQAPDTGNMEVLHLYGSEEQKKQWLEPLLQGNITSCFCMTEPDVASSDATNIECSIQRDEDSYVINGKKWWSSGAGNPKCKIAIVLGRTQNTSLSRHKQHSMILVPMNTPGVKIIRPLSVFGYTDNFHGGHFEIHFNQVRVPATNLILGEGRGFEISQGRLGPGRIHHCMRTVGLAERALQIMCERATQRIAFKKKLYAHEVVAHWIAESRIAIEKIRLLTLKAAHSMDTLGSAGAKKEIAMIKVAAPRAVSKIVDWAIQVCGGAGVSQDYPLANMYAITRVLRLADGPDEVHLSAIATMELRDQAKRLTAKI
# BMPR1B = molecular target: T10, BMPR1B (Homo sapiens, UniProt O00238); test: Kinobeads two-dose competition binding: BMPR1B; conditions: read-out: Lestaurtinib Drugmatrix value, Gene Name BMPR1B
# T10 construct: endogenous in cells
# CK2alpha1 (CSNK2A1) = molecular target: T11, CK2alpha1 (CSNK2A1) (Homo sapiens, UniProt P68400); test: Recombinant kinase activity assay (ProQinase, FlashPlate radiometric): CK2alpha1; assay type: biochemical
# T11 construct: purchased ProQinase
# Method: Kinase activity assays were performed by ProQinase. Dose-dependent activity inhibition of CDK1/cyclinB, CK2alpha1 and CK2alpha2 were measured using a FlashPlateTM-based radiometric assay at KM (ATP) of the respective kinase.
# [1] = EC50 with Correction, doses in nM, read-out: apparent Kd
# [2] = eight-dose curve fit, doses in nM
# T4 sequence (Q04759 whole entry): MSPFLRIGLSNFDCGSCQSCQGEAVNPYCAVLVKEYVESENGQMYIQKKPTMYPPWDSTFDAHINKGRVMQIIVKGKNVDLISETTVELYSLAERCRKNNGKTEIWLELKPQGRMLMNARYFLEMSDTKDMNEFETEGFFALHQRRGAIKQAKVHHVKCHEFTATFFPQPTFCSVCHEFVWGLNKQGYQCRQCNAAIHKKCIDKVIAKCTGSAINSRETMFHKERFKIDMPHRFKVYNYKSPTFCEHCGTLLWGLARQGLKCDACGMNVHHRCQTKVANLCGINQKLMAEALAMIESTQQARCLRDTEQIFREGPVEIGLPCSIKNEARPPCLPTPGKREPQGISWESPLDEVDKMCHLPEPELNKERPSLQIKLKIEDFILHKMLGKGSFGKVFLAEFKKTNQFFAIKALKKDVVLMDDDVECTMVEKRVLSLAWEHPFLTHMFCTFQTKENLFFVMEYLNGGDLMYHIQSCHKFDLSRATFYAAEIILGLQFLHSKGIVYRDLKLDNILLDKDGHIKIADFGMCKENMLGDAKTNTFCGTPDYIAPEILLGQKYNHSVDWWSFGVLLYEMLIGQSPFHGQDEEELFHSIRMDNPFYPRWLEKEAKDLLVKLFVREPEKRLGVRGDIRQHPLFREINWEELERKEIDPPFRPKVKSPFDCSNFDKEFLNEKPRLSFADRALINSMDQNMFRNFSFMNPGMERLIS
# T1 sequence (P22612 whole entry): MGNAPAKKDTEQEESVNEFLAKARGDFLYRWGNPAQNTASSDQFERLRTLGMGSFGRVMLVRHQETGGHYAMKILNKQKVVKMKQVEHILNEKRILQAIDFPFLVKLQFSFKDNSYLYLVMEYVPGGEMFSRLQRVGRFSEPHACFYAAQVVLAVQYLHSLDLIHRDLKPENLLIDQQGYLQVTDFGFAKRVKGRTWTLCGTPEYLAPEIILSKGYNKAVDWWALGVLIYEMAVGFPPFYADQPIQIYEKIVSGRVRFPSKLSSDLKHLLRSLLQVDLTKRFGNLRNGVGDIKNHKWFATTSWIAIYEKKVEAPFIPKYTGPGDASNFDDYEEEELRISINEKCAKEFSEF
# T2 sequence (P05771 whole entry): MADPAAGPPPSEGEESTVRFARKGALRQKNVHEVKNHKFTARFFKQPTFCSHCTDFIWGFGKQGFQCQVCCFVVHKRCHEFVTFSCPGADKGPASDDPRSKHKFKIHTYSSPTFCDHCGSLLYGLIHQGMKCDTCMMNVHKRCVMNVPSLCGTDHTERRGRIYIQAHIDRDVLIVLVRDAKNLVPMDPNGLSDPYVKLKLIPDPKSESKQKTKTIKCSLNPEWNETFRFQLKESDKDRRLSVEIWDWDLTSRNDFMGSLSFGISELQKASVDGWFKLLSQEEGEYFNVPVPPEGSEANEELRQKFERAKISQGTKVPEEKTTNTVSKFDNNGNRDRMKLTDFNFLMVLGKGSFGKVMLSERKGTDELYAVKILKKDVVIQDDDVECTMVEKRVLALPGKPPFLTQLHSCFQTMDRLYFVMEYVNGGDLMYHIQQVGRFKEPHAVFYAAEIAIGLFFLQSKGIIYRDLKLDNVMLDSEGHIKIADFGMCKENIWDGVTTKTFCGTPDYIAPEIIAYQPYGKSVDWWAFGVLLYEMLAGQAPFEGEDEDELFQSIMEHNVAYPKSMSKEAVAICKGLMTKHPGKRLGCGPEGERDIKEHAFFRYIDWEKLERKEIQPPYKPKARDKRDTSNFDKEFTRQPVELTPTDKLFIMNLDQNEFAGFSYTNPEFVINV
# T11 sequence (P68400 whole entry): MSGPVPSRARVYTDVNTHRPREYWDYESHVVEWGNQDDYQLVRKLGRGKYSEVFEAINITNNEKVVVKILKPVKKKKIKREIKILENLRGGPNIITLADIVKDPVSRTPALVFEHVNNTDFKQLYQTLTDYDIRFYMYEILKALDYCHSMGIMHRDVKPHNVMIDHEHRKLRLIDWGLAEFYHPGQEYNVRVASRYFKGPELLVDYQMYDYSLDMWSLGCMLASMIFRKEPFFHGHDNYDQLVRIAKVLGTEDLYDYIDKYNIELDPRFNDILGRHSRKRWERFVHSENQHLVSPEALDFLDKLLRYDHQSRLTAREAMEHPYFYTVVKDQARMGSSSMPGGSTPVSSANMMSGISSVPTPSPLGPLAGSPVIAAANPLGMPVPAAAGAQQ
# T10 sequence (O00238 14-502): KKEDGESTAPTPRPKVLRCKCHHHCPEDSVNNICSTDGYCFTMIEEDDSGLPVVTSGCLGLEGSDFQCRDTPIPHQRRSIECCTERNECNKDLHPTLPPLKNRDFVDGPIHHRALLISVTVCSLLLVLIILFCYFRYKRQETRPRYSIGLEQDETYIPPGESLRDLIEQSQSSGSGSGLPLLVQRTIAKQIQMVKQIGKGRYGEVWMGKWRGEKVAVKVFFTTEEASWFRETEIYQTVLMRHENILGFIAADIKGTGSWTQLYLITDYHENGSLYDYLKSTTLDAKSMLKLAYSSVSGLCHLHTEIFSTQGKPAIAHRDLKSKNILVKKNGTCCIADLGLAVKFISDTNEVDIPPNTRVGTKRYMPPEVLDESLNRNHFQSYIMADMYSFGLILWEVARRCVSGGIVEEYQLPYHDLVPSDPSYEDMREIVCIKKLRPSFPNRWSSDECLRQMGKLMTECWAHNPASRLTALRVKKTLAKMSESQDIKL
# T7 sequence (P49840 whole entry): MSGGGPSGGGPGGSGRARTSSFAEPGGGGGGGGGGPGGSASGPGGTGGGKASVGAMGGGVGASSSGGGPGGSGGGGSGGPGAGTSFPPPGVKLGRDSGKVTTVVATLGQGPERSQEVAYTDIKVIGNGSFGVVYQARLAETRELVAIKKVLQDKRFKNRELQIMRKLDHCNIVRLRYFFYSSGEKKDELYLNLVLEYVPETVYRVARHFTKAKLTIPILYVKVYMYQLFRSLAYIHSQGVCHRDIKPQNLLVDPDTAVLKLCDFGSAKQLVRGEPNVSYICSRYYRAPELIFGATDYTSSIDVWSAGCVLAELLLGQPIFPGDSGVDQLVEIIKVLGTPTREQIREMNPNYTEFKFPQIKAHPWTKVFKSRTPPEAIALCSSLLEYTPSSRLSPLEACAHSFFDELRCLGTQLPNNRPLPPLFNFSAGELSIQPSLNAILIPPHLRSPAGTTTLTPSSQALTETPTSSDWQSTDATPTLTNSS
smiles,measurement,setting,value
CCn1c(-c2nonc2N)nc2c(C#CC(C)(C)O)nc(OCCNC)cc21 [GSK949675A],Relative Intensity 0.3nM,"PRKACG; 0.3nM compound, DMSO = 1",0.6931
same,Relative Intensity 1nM,"PRKACG; 1nM compound, DMSO = 1",0.8057
same,Relative Intensity 3nM,"PRKACG; 3nM compound, DMSO = 1",0.9707
same,Relative Intensity 10nM,"PRKACG; 10nM compound, DMSO = 1",0.8006
same,Relative Intensity 30nM,"PRKACG; 30nM compound, DMSO = 1",0.7952
same,Relative Intensity 100nM,"PRKACG; 100nM compound, DMSO = 1",0.9305
same,Relative Intensity 300nM,"PRKACG; 300nM compound, DMSO = 1",0.645
same,Relative Intensity 1000nM,"PRKACG; 1000nM compound, DMSO = 1",0.4141
same,Kd,PRKACG; [1],262 nM
same,EC50,PRKACG; [2],303 nM
CCn1c(-c2nonc2N)nc2c(C#CC(C)(C)O)nc(OCCN)cc21 [GSK902056A],Relative Intensity 0.3nM,"PRKCB; 0.3nM compound, DMSO = 1",1.022
same,Relative Intensity 1nM,"PRKCB; 1nM compound, DMSO = 1",1.013
same,Relative Intensity 3nM,"PRKCB; 3nM compound, DMSO = 1",1.059
same,Relative Intensity 10nM,"PRKCB; 10nM compound, DMSO = 1",1.038
same,Relative Intensity 30nM,"PRKCB; 30nM compound, DMSO = 1",0.9653
same,Relative Intensity 100nM,"PRKCB; 100nM compound, DMSO = 1",0.9
same,Relative Intensity 300nM,"PRKCB; 300nM compound, DMSO = 1",0.7943
same,Relative Intensity 1000nM,"PRKCB; 1000nM compound, DMSO = 1",0.5993
same,Kd,PRKCB; [1],401 nM
same,EC50,PRKCB; [2],410 nM
same,Relative Intensity 0.3nM,"PRKACA; 0.3nM compound, DMSO = 1",1.008
same,Relative Intensity 1nM,"PRKACA; 1nM compound, DMSO = 1",0.9404
same,Relative Intensity 3nM,"PRKACA; 3nM compound, DMSO = 1",0.9819
same,Relative Intensity 10nM,"PRKACA; 10nM compound, DMSO = 1",0.932
same,Relative Intensity 30nM,"PRKACA; 30nM compound, DMSO = 1",0.8034
same,Relative Intensity 100nM,"PRKACA; 100nM compound, DMSO = 1",0.7942
same,Relative Intensity 300nM,"PRKACA; 300nM compound, DMSO = 1",0.6618
same,Relative Intensity 1000nM,"PRKACA; 1000nM compound, DMSO = 1",0.5702
same,Kd,PRKACA; [1],212 nM
same,EC50,PRKACA; [2],230 nM
same,Relative Intensity 0.3nM,"PRKCQ; 0.3nM compound, DMSO = 1",0.9348
same,Relative Intensity 1nM,"PRKCQ; 1nM compound, DMSO = 1",1.037
same,Relative Intensity 3nM,"PRKCQ; 3nM compound, DMSO = 1",0.9215
same,Relative Intensity 10nM,"PRKCQ; 10nM compound, DMSO = 1",0.8429
same,Relative Intensity 30nM,"PRKCQ; 30nM compound, DMSO = 1",0.5346
same,Relative Intensity 100nM,"PRKCQ; 100nM compound, DMSO = 1",0.4204
same,Relative Intensity 300nM,"PRKCQ; 300nM compound, DMSO = 1",0
same,Relative Intensity 1000nM,"PRKCQ; 1000nM compound, DMSO = 1",0
same,Kd,PRKCQ; [1],58.7 nM
same,EC50,PRKCQ; [2],58.7 nM
same,Relative Intensity 0.3nM,"PRKACB; 0.3nM compound, DMSO = 1",0.9369
same,Relative Intensity 1nM,"PRKACB; 1nM compound, DMSO = 1",1.09
same,Relative Intensity 3nM,"PRKACB; 3nM compound, DMSO = 1",1.112
same,Relative Intensity 10nM,"PRKACB; 10nM compound, DMSO = 1",0.9825
same,Relative Intensity 30nM,"PRKACB; 30nM compound, DMSO = 1",0.9287
same,Relative Intensity 100nM,"PRKACB; 100nM compound, DMSO = 1",0.758
same,Relative Intensity 300nM,"PRKACB; 300nM compound, DMSO = 1",0.7526
same,Relative Intensity 1000nM,"PRKACB; 1000nM compound, DMSO = 1",0.5592
same,Kd,PRKACB; [1],145 nM
same,EC50,PRKACB; [2],145 nM
C[C@]12O[C@H](C[C@]1(O)CO)n1c3ccccc3c3c4c(c5c6ccccc6n2c5c31)CNC4=O [Lestaurtinib],potency estimated from few doses,PHKG2,321 nM
same,potency estimated from few doses,GSK3A,175 nM
same,potency estimated from few doses,PRKAR2A,979 nM
same,potency estimated from few doses,ACAD11,890 nM
same,potency estimated from few doses,BMPR1B,737 nM
COc1cc(Nc2ncc3c(C)nc(-c4cc5ccccc5[nH]4)n3n2)cc(OC)c1OC [GW869516X],IC50,"CK2alpha1 (CSNK2A1); Enzyme CK2alpha1, Highest Assay Concentration 1.00E-06 M, read-out: IC50",85.1 nM
same,IC50,"CK2alpha1 (CSNK2A1); recombinant kinase activity assay at KM (ATP), read-out: Activity IC50 CSNK2A1",85 nM
